Assay results published in patent publication US20120165319A1, “INHIBITORS OF INTERLEUKIN-1 BETA CONVERTING ENZYME” (VERTEX PHARMACEUTICALS INCORPORATED, priority 1995, published 2012).
Where two headings read alike, the source gives them in different places.

Tests used:
[1] = target: T1, ICE (Homo sapiens, UniProt P29466); assay: Enzyme assay with UV-visible substrate (visible ICE assay, Succinyl-Tyr-Val-Ala-Asp-pNitroanilide); format: biochemical
T1 sequence (P29466 120-297 limits assumed): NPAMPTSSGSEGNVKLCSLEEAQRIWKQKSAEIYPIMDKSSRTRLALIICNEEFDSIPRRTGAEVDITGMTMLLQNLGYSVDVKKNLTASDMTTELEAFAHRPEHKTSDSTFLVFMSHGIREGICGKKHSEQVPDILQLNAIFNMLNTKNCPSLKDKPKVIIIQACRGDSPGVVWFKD
T1 sequence (P29466 317-404 limits assumed): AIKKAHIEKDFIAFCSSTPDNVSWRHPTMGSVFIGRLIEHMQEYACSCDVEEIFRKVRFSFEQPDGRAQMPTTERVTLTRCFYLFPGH
Procedure, shortened: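 Colorimetric caspase-1 activity: 15 min enzyme-inhibitor preincubation (RT), then Suc-Tyr-Val-Ala-Asp-pNA; 405-603 nm kinetics, 20 min, 37° C. Ki from rate fitting.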

[2] = In vivo rat clearance assay; details: for clearance: plasma, iv
Procedure, shortened: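 Rats cannulated a day beforehand received 10–20 mg/kg by intravenous jugular dosing in propylene glycol/saline with 100 mM sodium bicarbonate. Carotid blood was sampled from 0 to 90 min, and plasma was extracted with acetonitrile/0.1% TFA for HPLC quantification. Clearance from non-linear regression pharmacokinetic analysis.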

[3] = system: IL-1β production, LPS-challenged mice; assay: In vivo acute assay for efficacy as anti-inflammatory agent: LPS-induced IL-1β production in mice; parameters: species or system mouse; details: for inhibition at 50 mg/kg: Mus musculus, po, read-out: percent inhibition of IL-1β production; for inhibition at 50 mg/kg / percent inhibition of IL-1β production: LPS challenged mice, compound PO, 50 mg/kg; for IP % Inhibition / POS Inhibition: % inhibition of IL-β production, LPS-challenged mice, 50 mg/kg (Table 3); for POS Inhibition: PO
Procedure, shortened: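 CD1 mice (n=6) were challenged with LPS 20 mg/kg IP and given compound IP in olive oil:DMSO:ethanol (90:5:5) 1 h after LPS, or at the time of challenge for some analogs. Blood was taken 7 h after LPS and serum IL-1β was measured by ELISA. Oral gavage at 50 mg/kg was also tested.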

[4] = 0 h, administered 0 h relative to time of LPS challenge
[5] = 2 h, administered −2 h relative to time of LPS challenge
[6] = 1 h, administered +1 h relative to time of LPS challenge

| Structure (SMILES) | Ki ([1]; Table 5) [nM] | clearance ([2]; 10-20 mg/kg) [mL/min/kg] | inhibition at 50 mg/kg [3, 4] [%] | inhibition at 50 mg/kg [3, 5] [%] | Ki ([1]; Table 17) [nM] | clearance ([2]; Table 17) [mL/min/kg] | other results |
| --- | --- | --- | --- | --- | --- | --- | --- |
| CN(C)c1cccc(C(=O)N[C@H]2CCC(=O)N3CCC[C@@H](C(=O)N[C@H](C=O)CC(=O)O)N3C2=O)c1 [Compound 470] | 5 | 63 | 36 | 0 | – | – | – |
| O=C[C@H](CC(=O)O)NC(=O)CN1C(=O)[C@@H](NC(=O)c2cc(Cl)c(O)c(Cl)c2)CN(C(=O)CO)c2ccccc21 [Compound 662, (3S)-3-[(3S)-2-Oxo-3-(3,5-dichloro-4-hydroxybenzoyl)amino-5-(2-hydroxy)acetyl-2,3,4,5-tetrahydro-1H-1,5-benzodiazepine-1-acetylamino]-4-oxo-butyric acid] | – | – | 75 | 41 | 0.5 | 2.75 | – |
| COCC(=O)N1C[C@H](NC(=O)c2ccccc2)C(=O)N(CC(=O)N[C@H](C=O)CC(=O)O)c2ccccc21 [Compound 605e, (3S)-3-[(3S)-2-Oxo-3-benzoylamino-5-methoxyacetyl-2,3,4,5-tetrahydro-1H-1,5-benzodiazepin-1-acetylamino]-4-oxo-butyric acid] | 29 | 24 | – | – | – | – | – |
| Cc1cc(C(=O)N[C@H]2CCC(=O)N3CCC[C@@H](C(=O)N[C@H](C=O)CC(=O)O)N3C2=O)cc(C)c1O [Compound 214w] | – | – | – | – | 0.6 | – | Clearance Rat, i.v. ([2]; Table 17): 15 mL/min/kg; percent inhibition of IL-1β production ([3]; administered 0 h relative to time of LPS challenge): 91%; percent inhibition of IL-1β production ([3]; administered −2 h relative to time of LPS challenge): 11% |
| CC(=O)N1C[C@H](NC(=O)c2cc(C)c(O)c(C)c2)C(=O)N(CC(=O)N[C@H](C=O)CC(=O)O)c2ccccc21 [Compound 671, (3S)-3-[(3S)-2-Oxo-3-(3,5-dimethyl-4-hydroxybenzoyl)amino-5-acetyl-2,3,4,5-tetrahydro-1H-1,5-benzodiazepine-1-acetylamino]-4-oxo-butyric acid] | – | – | – | – | 5 | 33.2 | – |
| O=C[C@H](CC(=O)O)NC(=O)[C@@H]1CCCN2C(=O)CC[C@H](NC(=O)c3ccc4nc[nH]c4c3)C(=O)N12 [Compound 434] | 4.9 | 20 | 63 | 0 | – | – | IP % Inhibition [3]: 74%; POS Inhibition [3]: 80%; inhibition at 50 mg/kg [3, 6]: 80% |
| O=C[C@H](CC(=O)O)NC(=O)[C@@H]1CCCN2C(=O)CC[C@H](NC(=O)c3cc4ccsc4s3)C(=O)N12 [Compound 442] | 3.2 | 54 | – | – | – | – | IP % Inhibition [3]: 0%; POS Inhibition [3]: 10% |
| CN(C)c1ccc(C(=O)N[C@H]2CCC(=O)N3CCC[C@@H](C(=O)N[C@H](C=O)CC(=O)O)N3C2=O)cc1 [Compound 471] | 1 | 17 | 34 | 0 | – | – | – |
| COCC(=O)N1C[C@H](NC(=O)c2cccc3ccccc23)C(=O)N(CC(=O)N[C@H](C=O)CC(=O)O)c2ccccc21 [Compound 2201, (3S)-3-[(3S)-2-oxo-3-(1-naphthoyl)amino-5-methoxyacetyl-2,3,4,5-tetrahydro-1H-1,5-benzodiazepine-1-acetylamino]4-oxo-butyric acid] | 9 | 60 | – | – | – | – | – |
| O=C[C@H](CC(=O)O)NC(=O)CN1C(=O)[C@@H](NC(=O)c2ccccc2)CN(C(=O)CO)c2ccccc21 [Compound 668, (3S)-3-[(3S)-2-Oxo-3-benzoylamino-5-(2-hydroxy)acetyl-2,3,4,5-tetrahydro-1H-1,5-benzodiazepine-1-acetylamino]-4-oxo-butyric acid] | – | – | – | – | 9 | 29 | inhibition at 50 mg/kg [3, 6]: 53% |
| Cc1cc(C(=O)N[C@H]2CN(C(=O)CO)c3ccccc3N(CC(=O)N[C@H](C=O)CC(=O)O)C2=O)cc(C)c1O [Compound 691a, (3S)-3-[(3S)-2-Oxo-3-(3,5-dimethyl-4-hydroxybenzoyl)amino-5-hydroxyacetyl-2,3,4,5-tetrahydro-1H-1,5-benzodiazepine-1-acetylamino]-4-oxo-butyric acid] | – | – | – | – | 2.1 | 9.9 | – |
| Cc1nc(C)c(C(=O)N[C@H]2CCC(=O)N3CCC[C@@H](C(=O)N[C@H](C=O)CC(=O)O)N3C2=O)s1 [Compound 423] | 10 | 45 | – | – | – | – | – |
| O=C[C@H](CC(=O)O)NC(=O)[C@@H]1CCCN2C(=O)CC[C@H](NC(=O)c3cc(Cl)c(O)c(Cl)c3)C(=O)N12 [Compound 214k, [3S(1S,9S)]3-(9-(3,5-Dichloro-4-hydroxybenzoyl)amino-6,10-dioxo-1,2,3,4,7,8,9,10-octahydro-6H-pyridazino[1,2-a][1,2]diazepine-1-carboxamido)-4-oxobutanoic acid] | – | – | 31 | 12 | 0.2 | 22 | – |
| O=C[C@H](CC(=O)O)NC(=O)[C@@H]1CCCN2C(=O)CC[C@H](NC(=O)c3ccc(Cl)cc3)C(=O)N12 [Compound 416] | 12 | 47 | – | – | – | – | IP % Inhibition [3]: 39%; POS Inhibition [3]: 52% |
| O=C[C@H](CC(=O)O)NC(=O)CN1C(=O)[C@@H](NC(=O)c2nccc3ccccc23)CN(C(=O)CO)c2ccccc21 [Compound 696, (3S)-3-[(3S)-2-Oxo-3-(isoquinolin-1-oyl)amino-5-hydroxyacetyl-2,3,4,5-tetrahydro-1H-1,5-benzodiazepine-1-acetylamino]-4-oxo-butyric acid] | – | – | – | – | 4.5 | 13 | – |
| CC(=O)N1C[C@H](NC(=O)c2cc(Cl)c(O)c(Cl)c2)C(=O)N(CC(=O)N[C@H](C=O)CC(=O)O)c2ccccc21 [Compound 656, (3S)-3-[(3S)-2-Oxo-3-(3,5-dichloro, 4-hydroxybenzoyl)amino-5-acetyl-2,3,4,5-tetrahydro-1H-1,5-benzodiazepine-1-acetylamino-]4-oxo-butyric acid] | – | – | 16 | 31 | 0.6 | 2.9 | – |
| CC(=O)Nc1ccc(C(=O)N[C@H]2CCC(=O)N3CCC[C@@H](C(=O)N[C@H](C=O)CC(=O)O)N3C2=O)cc1Cl [Compound 214l, [3S(1S,9S)]3-(9-(3-Chloro-4-acetamidobenzoyl)amino-6,10-dioxo-1,2,3,4,7,8,9,10-octahydro-6H-pyridazino[1,2-a][1,2]diazepine-1-carboxamido)-4-oxobutanoic acid] | – | – | 54 | 0 | 6 | 12 | – |
| COc1c(Cl)cc(C(=O)N[C@H]2CCC(=O)N3CCC[C@@H](C(=O)N[C@H](C=O)CC(=O)O)N3C2=O)cc1Cl [Compound 214m] | – | – | 17 | 0 | 1.5 | 33.4 | – |
